Test results as given in the supplement of paper PMC10307832.

Key:
Test in all cases: relative viability (nuclei count vs DMSO), 5 days (fraction); higher = more cells survive
BEN = system: BEN
In short: (§1)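 Dosing by pin tool came one day after lung cancer cell lines were seeded in 1536-well plates, using either one drug or a fixed anchor-drug dose plus five library-drug doses (not always all listed) in √10 steps. After 5 days, nuclei were counted on 4× images. Relative viability is treated-well nuclei count divided by vehicle-well nuclei count, and values are medians of duplicate plates.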

CAL-12T = system: CAL-12T
In short: as §1

EKVX = system: EKVX
In short: as §1

HCC-15 = system: HCC-15
In short: as §1

HCC-366 = system: HCC-366
In short: as §1

HCC-44 = system: HCC-44
In short: as §1

LCLC-103H = system: LCLC-103H
In short: as §1

LOU-NH91 = system: LOU-NH91
In short: as §1

NCI-H1355 = system: NCI-H1355
In short: as §1

NCI-H1395 = system: NCI-H1395
In short: as §1

NCI-H1437 = system: NCI-H1437
In short: as §1

NCI-H1563 = system: NCI-H1563
In short: as §1

NCI-H1650 = system: NCI-H1650
In short: as §1

NCI-H1651 = system: NCI-H1651
In short: as §1

NCI-H1734 = system: NCI-H1734
In short: as §1

NCI-H1755 = system: NCI-H1755
In short: as §1

NCI-H1975 = system: NCI-H1975
In short: as §1

NCI-H2023 = system: NCI-H2023
In short: as §1

NCI-H2085 = system: NCI-H2085
In short: as §1

NCI-H2342 = system: NCI-H2342
In short: as §1

NCI-H358 = system: NCI-H358
In short: as §1

NCI-H441 = system: NCI-H441
In short: as §1

NCI-H460 = system: NCI-H460
In short: as §1

NCI-H838 = system: NCI-H838
In short: as §1

C[C@@H]1CN(CC(=O)Nc2ccc3c(c2)Cc2cccc(-c4cc(=O)cc(N5CCOCC5)o4)c2S3)C[C@H](C)O1 + N=C(N)NC(=N)NCCc1ccccc1 [Phenformin] (partner 250 µM)
relative viability (BEN; first compound 0.04 µM): 0.254 | relative viability (BEN; first compound 0.1265 µM): 0.261 | relative viability (BEN; first compound 0.4 µM): 0.294 | relative viability (BEN; first compound 4 µM): 0.264 | relative viability (CAL-12T; first compound 0.04 µM): 0.712 | relative viability (CAL-12T; first compound 0.1265 µM): 0.505 | relative viability (CAL-12T; first compound 0.4 µM): 0.598 | relative viability (CAL-12T; first compound 4 µM): 0.425 | relative viability (EKVX; first compound 0.04 µM): 0.23 | relative viability (EKVX; first compound 0.1265 µM): 0.25 | relative viability (EKVX; first compound 0.4 µM): 0.234 | relative viability (EKVX; first compound 4 µM): 0.221 | relative viability (HCC-15; first compound 0.04 µM): 0.479 | relative viability (HCC-15; first compound 0.1265 µM): 0.437 | relative viability (HCC-15; first compound 0.4 µM): 0.401 | relative viability (HCC-15; first compound 4 µM): 0.363 | relative viability (HCC-366; first compound 0.04 µM): 0.659 | relative viability (HCC-366; first compound 0.1265 µM): 0.656 | relative viability (HCC-366; first compound 0.4 µM): 0.634 | relative viability (HCC-366; first compound 4 µM): 0.681 | relative viability (HCC-44; first compound 0.04 µM): 0.176 | relative viability (HCC-44; first compound 0.1265 µM): 0.233 | relative viability (HCC-44; first compound 0.4 µM): 0.161 | relative viability (HCC-44; first compound 4 µM): 0.114 | relative viability (LCLC-103H; first compound 0.04 µM): 0.325 | relative viability (LCLC-103H; first compound 0.1265 µM): 0.299 | relative viability (LCLC-103H; first compound 0.4 µM): 0.302 | relative viability (LCLC-103H; first compound 4 µM): 0.331 | relative viability (LOU-NH91; first compound 0.04 µM): 0.792 | relative viability (LOU-NH91; first compound 0.1265 µM): 0.691 | relative viability (LOU-NH91; first compound 0.4 µM): 0.696 | relative viability (LOU-NH91; first compound 4 µM): 0.667 | relative viability (NCI-H1355; first compound 0.04 µM): 0.455 | relative viability (NCI-H1355; first compound 0.1265 µM): 0.482 | relative viability (NCI-H1355; first compound 0.4 µM): 0.433 | relative viability (NCI-H1355; first compound 4 µM): 0.43 | relative viability (NCI-H1395; first compound 0.04 µM): 0.495 | relative viability (NCI-H1395; first compound 0.1265 µM): 0.456 | relative viability (NCI-H1395; first compound 0.4 µM): 0.417 | relative viability (NCI-H1395; first compound 4 µM): 0.405 | relative viability (NCI-H1437; first compound 0.04 µM): 0.338 | relative viability (NCI-H1437; first compound 0.1265 µM): 0.306 | relative viability (NCI-H1437; first compound 0.4 µM): 0.303 | relative viability (NCI-H1437; first compound 4 µM): 0.365 | relative viability (NCI-H1563; first compound 0.04 µM): 0.692 | relative viability (NCI-H1563; first compound 0.1265 µM): 0.636 | relative viability (NCI-H1563; first compound 0.4 µM): 0.659 | relative viability (NCI-H1563; first compound 4 µM): 0.677 | relative viability (NCI-H1650; first compound 0.04 µM): 0.406 | relative viability (NCI-H1650; first compound 0.1265 µM): 0.431 | relative viability (NCI-H1650; first compound 0.4 µM): 0.37 | relative viability (NCI-H1650; first compound 4 µM): 0.347 | relative viability (NCI-H1651; first compound 0.04 µM): 0.334 | relative viability (NCI-H1651; first compound 0.1265 µM): 0.321 | relative viability (NCI-H1651; first compound 0.4 µM): 0.36 | relative viability (NCI-H1651; first compound 4 µM): 0.313 | relative viability (NCI-H1734; first compound 0.04 µM): 0.429 | relative viability (NCI-H1734; first compound 0.1265 µM): 0.392 | relative viability (NCI-H1734; first compound 0.4 µM): 0.366 | relative viability (NCI-H1734; first compound 4 µM): 0.399 | relative viability (NCI-H1755; first compound 0.04 µM): 0.611 | relative viability (NCI-H1755; first compound 0.1265 µM): 0.603 | relative viability (NCI-H1755; first compound 0.4 µM): 0.698 | relative viability (NCI-H1755; first compound 4 µM): 0.586 | relative viability (NCI-H1975; first compound 0.04 µM): 0.437 | relative viability (NCI-H1975; first compound 0.1265 µM): 0.39 | relative viability (NCI-H1975; first compound 0.4 µM): 0.393 | relative viability (NCI-H1975; first compound 4 µM): 0.332 | relative viability (NCI-H2023; first compound 0.04 µM): 0.458 | relative viability (NCI-H2023; first compound 0.1265 µM): 0.432 | relative viability (NCI-H2023; first compound 0.4 µM): 0.385 | relative viability (NCI-H2023; first compound 4 µM): 0.344 | relative viability (NCI-H2085; first compound 0.04 µM): 0.763 | relative viability (NCI-H2085; first compound 0.1265 µM): 0.732 | relative viability (NCI-H2085; first compound 0.4 µM): 0.694 | relative viability (NCI-H2085; first compound 4 µM): 0.595 | relative viability (NCI-H2342; first compound 0.04 µM): 0.625 | relative viability (NCI-H2342; first compound 0.1265 µM): 0.568 | relative viability (NCI-H2342; first compound 0.4 µM): 0.525 | relative viability (NCI-H2342; first compound 4 µM): 0.519 | relative viability (NCI-H358; first compound 0.04 µM): 0.362 | relative viability (NCI-H358; first compound 0.1265 µM): 0.28 | relative viability (NCI-H358; first compound 0.4 µM): 0.371 | relative viability (NCI-H358; first compound 4 µM): 0.28 | relative viability (NCI-H441; first compound 0.04 µM): 0.913 | relative viability (NCI-H441; first compound 0.1265 µM): 0.897 | relative viability (NCI-H441; first compound 0.4 µM): 0.682 | relative viability (NCI-H441; first compound 4 µM): 0.722 | relative viability (NCI-H460; first compound 0.04 µM): 0.566 | relative viability (NCI-H460; first compound 0.1265 µM): 0.488 | relative viability (NCI-H460; first compound 0.4 µM): 0.605 | relative viability (NCI-H460; first compound 4 µM): 0.392 | relative viability (NCI-H838; first compound 0.04 µM): 0.527 | relative viability (NCI-H838; first compound 0.1265 µM): 0.54 | relative viability (NCI-H838; first compound 0.4 µM): 0.497 | relative viability (NCI-H838; first compound 4 µM): 0.374
